# Test results as given in PubChem BioAssay AID743394 (Broad Institute, 2014).
# Calls of active or inactive are those of the source.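 How the source made its calls: active means 40% activation versus positive control reached by fitted dose-response curve at or below highest valid tested dose; inconclusive means poor fit quality, or flat fit with activation between 30% and 70%; inactive means the rest.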
# Assay: inactive X chromosome reactivation in XiGFP fibroblasts, dose response, imaging, 68-5-11 mouse fibroblasts, GFP, cherry-pick (AID 743394);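 further: sensitizer 5-aza-dC present in the wells at 0.5 mM final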
# Settings: 68-5-11 mouse fibroblast XiGFP reporter, % GFP-positive imaging, 3 d; at 19.5 µM (top of the series)
row,SMILES,activation
1,COCCCn1c(N)c(C(=O)Nc2ccccc2)c2nc3ccccc3nc21,-0.127% (inactive)

# Same assay, conditions: 68-5-11 mouse fibroblast XiGFP reporter, % GFP-positive imaging, 3 d; at 19.5 µM (top of the series); cells co-treated with 5-aza-dC sensitizer; scaled: neutral wells 0, ellipticine wells 100
row,SMILES,activation
1,CCOC(=O)CSc1nnc(CCCCCN2C(=O)c3cccc4cccc(c34)C2=O)o1,0.013% (inactive)
2,CCOC(=O)c1sc2nc(CSc3ccccc3)[nH]c(=O)c2c1C,0.303% (inactive)
3,Cc1cccc2sc(N(CCCN(C)C)C(=O)CN3C(=O)c4ccccc4C3=O)nc12,-0.047% (inactive)
4,CCOCCCNC(=O)C(c1ccc(C)cc1)N(Cc1cccs1)C(=O)c1ccccn1 (stereo not drawn),0.035% (inactive)
5,O=c1c2ccccc2nnn1Cc1ccc2ccccc2c1,-0.047% (inactive)
6,Nc1nnc(SCC(=O)c2ccc([N+](=O)[O-])cc2)s1,0.961% (inactive)
7,COc1ccc(CCn2c(C)cc(C(=O)CN3C(=O)C(=O)N(Cc4ccco4)C3=O)c2C)cc1,0.899% (inactive)
8,CC(=O)N[C@@H](CC(=O)O)C(=O)O,-0.053% (inactive)
9,CC(=O)c1cccc(-c2ccc3c(c2)C(C)(Cc2ccc(S(C)(=O)=O)cc2)C(=O)N3)c1 (stereo not drawn),-0.032% (inactive)
10,O=C(NNC(=O)c1cc2ccccc2o1)c1ccc(Cl)cc1,0.006% (inactive)
11,N#CC(C#N)=C1C=CC=CN1/C(=C\c1ccco1)C(=O)c1ccc(Br)cc1,8.49% (inactive)
12,O=C(CCC(=O)Nc1cccnc1)Nc1cccnc1,0.049% (inactive)
13,CCOC(=O)C1(Cc2ccccc2C)CCCN(C(=O)CSC)C1 (stereo not drawn),-0.053% (inactive)
14,Cc1cc(=O)[nH]c(N/N=C/c2cc(C)n(-c3ccccc3)c2C)n1,-0.016% (inactive)
15,Nc1nc(Nc2ccc(Cl)cc2)c(NC=O)c(=O)[nH]1,-0.075% (inactive)
16,NS(=O)(=O)c1cccc(-n2cnnn2)c1,0.065% (inactive)
17,CN(CC(=O)Nc1ccc(Cl)c(Cl)c1)CC(=O)Nc1ccc2c(c1)OCO2,-0.047% (inactive)
18,Cn1c(NC(=O)c2ccc(F)cc2)c(-c2ccccn2)c(=O)c2ccccc21,0.155% (inactive)
19,CC(=O)Nc1sc(C)c(C)c1C(=O)OCC(=O)Nc1cc(S(C)(=O)=O)ccc1Cl,0.641% (inactive)
20,COCCNC(=O)CSc1nc2scc(-c3ccccc3)c2c(=O)[nH]1,-0.001% (inactive)
21,CCOc1ccc(CCN2C(=S)N([C@@H](Cc3ccccc3)CN3CCC[C@@H]3CN3C(=S)NC[C@@H]3CC(C)C)C[C@@H]2Cc2ccccc2)cc1,0.011% (inactive)
22,COC1=CC(=O)c2nc(Cl)ccc2C1=O,5.06% (inactive)

row,SMILES,activation
1,Cc1ccc2c(COC(=O)C34CC5CC(CC(C5)C3)C4)cc(=O)oc2c1,-0.07% (inactive)
2,COc1ccc(NC(=O)Nc2ccc3c(c2)C(=O)N([C@@H](C)CO)C[C@H](C)[C@@H](CN(C)S(=O)(=O)c2ccc(OC)cc2)O3)cc1,0.014% (inactive)
3,CN(C)CCN(C(=O)c1ccc(S(=O)(=O)N(C)c2ccccc2)cc1)c1nc2cc3c(cc2s1)OCCO3,-0.008% (inactive)
4,Cc1ccc(OCCN2CCN(CC(O)Cn3c4ccccc4c4ccccc43)CC2)cc1 (stereo not drawn),5.68% (inactive)
5,Cc1ccc(S(=O)(=O)N(C)C[C@H]2Oc3ccc(NC(=O)Nc4ccccc4)cc3CC(=O)N([C@H](C)CO)C[C@@H]2C)cc1,-0.035% (inactive)
6,COc1ccc2c3c([nH]c2c1)[C@H](CO)N(C(=O)C1CCCC1)CC31CN(Cc2nccs2)C1,-0.007% (inactive)
7,COc1ccc(CN(C)C[C@H]2OCCCC[C@@H](C)Oc3ccc(NC(=O)Nc4ccc(F)cc4)cc3C(=O)N([C@@H](C)CO)C[C@H]2C)cc1,3.19% (inactive)
8,COc1ccc2c3c(n(C)c2c1)[C@@H](CO)N(Cc1ccccc1OC)CC31CCN(C)CC1,0.213% (inactive)
9,CC(C)OC(=O)/C(=C\c1cccnc1)NC(=O)c1ccccc1,-0.024% (inactive)
10,Cc1cc(=O)[nH]c(N/N=C/c2cc(C)n(CC(F)(F)F)c2C)n1,0.184% (inactive)
11,CC(=Nc1ccc(Cl)cc1N)c1c(O)cc(C)oc1=O,-0.044% (inactive)
12,COc1ccc(CCNC(=O)c2ccc([N+](=O)[O-])cc2)cc1,-0.024% (inactive)
13,COc1cc(/C=C(\C#N)c2nc3ccccc3o2)ccc1O,1.85% (inactive)
14,CCOc1ccc(NC(=S)NC(C)c2cccs2)cc1 (stereo not drawn),0.358% (inactive)
15,O=C(O)CSc1ncccn1,-0.015% (inactive)
16,O=C(COC(=O)/C=C/c1cccc(C(F)(F)F)c1)NC(=O)NCc1ccco1,-0.07% (inactive)
17,CC(Sc1nnc(-c2ccncc2)n1C)C(=O)Nc1ccc(N2CCOCC2)cc1 (stereo not drawn),-0.047% (inactive)
18,CCOCCCn1c(=NC(C)=O)c(C#N)cc2c(=O)n3cccc(C)c3nc21,0.035% (inactive)
19,CCN(CC)c1ccc(N=Cc2ccc([N+](=O)[O-])o2)cc1,0.626% (inactive)
20,O=C(NNC(=O)c1ccccc1Cl)c1ccccc1Cl,-0.034% (inactive)
21,CCOC(=O)c1cnc(-c2ccc(C(F)(F)F)cn2)[nH]c1=O,-0.017% (inactive)
22,CC1=C(Cl)C2=NS(=O)(=O)CCN2C=C1Cl,0.137% (inactive)

row,SMILES,activation
1,Cc1nn(-c2ccccc2)c(C)c1N,0.313% (inactive)
2,CO[C@@H]1CN(C)C(=O)c2cc(NS(C)(=O)=O)ccc2OC[C@H](C)N(C(=O)C2CCCC2)C[C@H]1C,0.988% (inactive)
3,Cn1c(=N)n(CC(=O)c2ccccc2)c2ccccc21,0.105% (inactive)
4,CCOC(=O)c1nn(-c2ccc3ccccc3c2)cc1O,0.359% (inactive)
5,C=Cc1cnc([N+](=O)[O-])n1C,-0.018% (inactive)
6,Cc1ccc(-c2csc(NC(=O)c3cccc([N+](=O)[O-])c3C(=O)O)n2)cc1,-0.047% (inactive)
7,O=C1Nc2ccccc2/C1=C/c1ccccc1Cl,-0.034% (inactive)
8,Cc1[nH]c2ccc(Br)cc2c(=O)c1CN1CCCCCC1,-0.013% (inactive)
9,Cc1ccc(S(=O)(=O)c2ccc([N+](=O)[O-])cn2)cc1,-0.05% (inactive)
10,COc1ccc2c3c(n(C)c2c1)[C@@H](CO)N(C)CC31CN(C(=O)NC(C)C)C1,-0.012% (inactive)
11,C[C@@H]1CN([C@@H](C)CO)C(=O)c2cc(NS(C)(=O)=O)ccc2O[C@@H](C)CCCCO[C@@H]1CN(C)Cc1ccccc1,0.016% (inactive)
12,Cc1ccc(-c2csc3nc4c5ccccc5c(NCCCN(C)C)nn4c(=O)c23)cc1,-0.05% (inactive)
13,COc1ccc(/C=C2\CCc3ccccc3C2=O)cc1CN1CCOCC1,0.231% (inactive)
14,COc1ccc(Nc2nc(N)c(C(=O)c3ccc(F)cc3)s2)cc1,0.551% (inactive)
15,CCN(CC)c1ccc(/C=C/C(=O)C2C(=O)C=C(C)OC2=O)cc1 (stereo not drawn),3.58% (inactive)
16,COc1cc(/C=C/c2ccc3cccc(O)c3n2)ccc1O,3.08% (inactive)
17,CO[C@H]1CN(C)C(=O)c2ccc(NC(=O)Cc3ccccc3)cc2OC[C@@H](C)N(C)C[C@H]1C,-0.035% (inactive)
18,CCCCOc1nc2ccccc2nc1NS(=O)(=O)c1ccc(F)cc1,0.851% (inactive)
19,CC(C)(C=O)C1=CC(=O)c2ccccc2C1=O,-0.07% (inactive)
20,COc1ccc(N(C)S(=O)(=O)c2cccc(C(=O)NCC(c3cccs3)N(C)C)c2)cc1 (stereo not drawn),0.036% (inactive)
21,COc1cccc(C(=O)c2c(-c3ccccc3)ncc3cc(OC)c(OC)cc23)c1,0.006% (inactive)
22,CN(C)c1ccc(NC2=C(Cl)C(=O)c3ccccc3C2=O)cc1,-0.053% (inactive)

row,SMILES,activation
1,O=[N+]([O-])c1ccc(S(=O)(=O)c2ccccc2)nc1,-0.024% (inactive)
2,CCCCCC[n+]1ccccc1/C=C/c1ccc(N(C)C)cc1,6.32% (inactive)
3,O=C(N/N=C/c1ccc2cccnc2c1)c1nc2ccccc2c(=O)[nH]1,0.014% (inactive)
4,Nc1ccccc1Nc1cc(-c2ccccc2)[nH]n1,-0.047% (inactive)
5,Cc1ccc(NC(=O)c2cc(N3C(=O)C=CC3=O)ccc2N2CCOCC2)cc1Cl,-0.024% (inactive)
6,CCc1ccc(NS(=O)(=O)c2ccc3[nH]cc(C(=O)N4CCc5ccccc54)c(=O)c3c2)cc1,-0.01% (inactive)
7,O=C(c1nc(SCc2ccc([N+](=O)[O-])cc2)n2ccccc12)C(F)(F)F,0.007% (inactive)
8,CN(C)C(=O)C[C@@H]1C=C[C@H](NS(=O)(=O)c2ccccc2)[C@@H](CO)O1,0.689% (inactive)
9,CCc1ccc(CCC(=O)Nc2ncc(Cc3ccccc3Cl)s2)o1,0.223% (inactive)
10,Cc1occc1C(=O)N/N=C/C(Br)=C\c1ccccc1,-0.024% (inactive)
11,COc1ccc(CNC(=O)c2ccc(-c3cnn(C)c3)c3ccoc23)cc1OC,-0.037% (inactive)
12,COc1ccccc1CNC(=O)COC(=O)COc1ccccc1F,0.549% (inactive)
13,COc1ccc(-c2ccc(C3[C@@H]4CN(S(=O)(=O)c5ccccc5C)C[C@H]3N4)cc2)cc1 (stereo partly drawn),0% (inactive)
14,O=C(CCN1CCCCC1)NCC[C@@H]1CC[C@H](NC(=O)C2CCCCC2)[C@H](CO)O1,0.052% (inactive)
15,C[C@@H]1CN([C@@H](C)CO)S(=O)(=O)c2ccc(C#CC3CC3)cc2O[C@H]1CN(C)Cc1ccc(F)cc1,0.063% (inactive)
16,COc1ccc2c3c([nH]c2c1)[C@H](CO)N(C(=O)Nc1ccc(F)cc1)CC31CN(CC2CC2)C1,-0.035% (inactive)
17,CCOC(=O)c1sc(-c2ccc(F)cc2)cc1NC(=O)Nc1ccccc1OC,0.169% (inactive)
18,Cc1nc(NC(=O)C(Cl)Cl)sc1C(=O)N(C)C,-0.034% (inactive)
19,CN(C)CC(=O)N1CC2(C1)[C@@H](c1ccccc1)[C@H](CO)N2C(=O)C1CC1,-0.015% (inactive)

# Same assay, conditions: 68-5-11 mouse fibroblast XiGFP reporter, % GFP-positive imaging, 3 d; at 21 µM (top of the series); cells co-treated with 5-aza-dC sensitizer; scaled: neutral wells 0, ellipticine wells 100
row,SMILES,activation
1,Cc1noc(C)c1NC(=O)N(C)C[C@@H]1Oc2ccc(NC(=O)C3CC3)cc2CC(=O)N([C@@H](C)CO)C[C@@H]1C,-0.023% (inactive)
2,Cc1cccc(CN(C)C[C@@H]2Oc3ncc(C#Cc4ccccc4)cc3C(=O)N([C@H](C)CO)C[C@@H]2C)c1,-0.035% (inactive)
